Source: patent US10829464B2, “Benzoheterocyclic alkylamine compounds and use thereof” (priority 2016, dated 2020)
pIC50: −log10 of the molar value. In brackets after ≈: the same amount, converted by molar mass.

Key:
NRS108 = assay: In vivo pharmacodynamics evaluation in infected mice; settings: BALB/c mice infected retroorbitally with NRS108
Procedure: (§1) Compound IA-25 was used as a representative compound. The laboratory SPF-grade female BALB/c mice were purchased from Shanghai Jiesijie Laboratory Animal Co., Ltd. and bred under aseptic condition to 6-8 weeks old. The S. aureus strains which had been cultured overnight were transferred to fresh and sterile TSB medium and cultured at 37° C. and 250 rpm for 3 h to exponential growth phase; the culture was washed twice with PBS buffer, and then suspended in PBS for later use. In the mouse infection assay, the mice were divided into several groups, each containing 10 mice.

LRSA56 = assay: as above; settings: BALB/c mice infected retroorbitally with LRSA56
Procedure: as §1

NRS271 = assay: as above; settings: BALB/c mice infected retroorbitally with NRS271
Procedure: as §1

NF65Y = assay: as above; settings: BALB/c mice infected retroorbitally with NF65Y
Procedure: as §1

strain Newman = assay: as above; settings: BALB/c mice infected retroorbitally with Newman
Procedure: as §1

Mu50 = assay: as above; settings: BALB/c mice infected retroorbitally with Mu50
Procedure: as §1

LRSA202 = assay: as above; settings: BALB/c mice infected retroorbitally with LRSA202
Procedure: as §1

[1] = tested on: wild-type S. aureus Newman strain; assay: Verification assay using CrtN as a target (HPLC of carotenoid extract); assay type: cell-based, Staphylococcus aureus; settings: 100 μM added to wild-type strain Newman, 440 nm
[2] = tested on: Staphylococcus aureus subsp. aureus str. strain Newman; assay: Preliminary screening assay of inhibition of staphyloxanthin synthesis; assay type: cell-based
Procedure: Strains used for assay: freshly activated wild-type Staphylococcus aureus subsp. aureus str. strain Newman and its homologous mutant strain having crtN insertion (without staphyloxanthin synthesis).
Medium for assay: Tryptone Soy broth (TSB), a product from Oxid Corporation, the United Kingdom, which was formulated with distilled water, sterilized at 121° C. for 15 min for later use.
Method of Preliminary Screening Assay:
(1) Preparation of compound: the compound of the invention was dissolved in dimethyl sulfoxide (DMSO) to prepare a stock solution having a concentration of 10 mM; 400 μL of DMSO was added to 100 μL of the stock solution to get a dilution with a concentration of 2 mM; 250 μL (2 mM) of the dilution was taken after mixing, and an equal amount of DMSO was added thereto for 2-fold dilution to get a solution with a concentration of […] for later use.
(2) Culture of the strain: single colonies of strain Newman were picked from TSA plates into a test tube containing 4 mL of sterile TSB medium, and cultured at 37° C. and 250 rpm for 12 h for later use.

Microsporum gypseum = assay: In vitro antifungal assay (micro liquid-based dilution); assay type: cell-based; settings: Nannizzia gypsea, read-out: Antifungal Activities, MIC80
CYP enzyme subtype 3A4M = CYP enzyme subtype 3A4M (Homo sapiens, UniProt P08684); assay: Inhibition assay on hepatic CYP450 enzyme; assay type: in vitro ADME; settings: CYP 3A4M; read-out: Half inhibitory concentration (IC50)
CYP enzyme subtype 3A4M, sequence (P08684 whole entry): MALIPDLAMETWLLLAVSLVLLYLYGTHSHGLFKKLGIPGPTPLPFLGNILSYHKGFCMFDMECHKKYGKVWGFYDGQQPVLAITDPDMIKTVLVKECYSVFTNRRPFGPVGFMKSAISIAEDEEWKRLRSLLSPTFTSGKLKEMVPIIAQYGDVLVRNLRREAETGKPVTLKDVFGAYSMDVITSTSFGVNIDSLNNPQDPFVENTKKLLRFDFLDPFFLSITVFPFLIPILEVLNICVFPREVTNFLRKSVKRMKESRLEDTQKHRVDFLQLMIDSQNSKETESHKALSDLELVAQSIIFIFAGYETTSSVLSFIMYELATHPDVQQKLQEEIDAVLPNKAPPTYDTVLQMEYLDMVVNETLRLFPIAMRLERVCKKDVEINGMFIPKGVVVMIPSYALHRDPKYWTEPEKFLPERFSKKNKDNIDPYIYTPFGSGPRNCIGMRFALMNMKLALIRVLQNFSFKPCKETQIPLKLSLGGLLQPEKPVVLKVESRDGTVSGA

CN(C/C=C/c1ccc(-c2ccccc2)cc1)Cc1coc2ccccc12 [Compound IA-25, (E)-N-methyl-N-[(benzofuran-3-yl)methylene]-3-(4-phenylphenyl)-prop-2-en-1-amine]
bioavailability (in vivo): 15 to 45% | Viable colony counts in vivo (NRS108): 2.3 Log10CFU | Viable colony counts in vivo (LRSA56): 3.3 Log10CFU | Viable colony counts in vivo (NRS271): 6.4 Log10CFU | Viable colony counts in vivo (NF65Y): 3.5 Log10CFU | Viable colony counts in vivo (strain Newman): 3.8 Log10CFU | Viable colony counts in vivo (Mu50): 2.7 Log10CFU | Viable colony counts in vivo (LRSA202): 4.9 Log10CFU | HPLC absorption peaks of carotenoid extract [1]: absorption peaks at the original peak position disappeared again | colors in final photograph of inhibition of staphyloxanthin synthesis ([2]; 50, 10, 5, 2.5, 1.25, 0.625, 0.3125 and 0 μM from left to right): white to yellow from left to right gradually | concentration at which staphyloxanthin synthesis is significantly inhibited ([2]; strain Newman, 24 h culture, lowest concentration tested): ≤ 0.3125 µM | MIC80 (Microsporum gypseum): 32 mg/L (≈ 90.5 µM) | pIC50 (CYP enzyme subtype 3A4M): < 5.00
